Measured values taken from PubChem BioAssay AID1918944 (Molecular Pharmacology Branch, DTP, NCI, 2023).
“And” between values parts separate entries of the source, which are not always exact repeats. Equal entries are not always repeated. The source made the active and inactive calls. How the source made its calls: active means viability on the fitted dose curve at most 10% of control; inactive means the rest.

Tested on: 786-0 complex spheroid viability
Test: Anticancer human tumor 786-0 cell line growth inhibition;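 further: spheroids exposed to agents for seven days before readout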
Details: for viability, T/C: stronger effect = lower value; for outcome: first compound 0.00949 µM
How it was run: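 Drug combinations with the LSD1 inhibitor iadademstat tested on tumor cells co-cultured as spheroids with endothelial cells and mesenchymal stem cells. Concentrations descended in half-log increments from clinical Cmax or 10 microM.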

[1] = curve of first compound, second compound 0.1 µM
[2] = curve of first compound, second compound 0.316 µM
[3] = curve of first compound, second compound 1 µM
[4] = curve of first compound, second compound 3.16 µM
[5] = curve of first compound, second compound 10 µM
[6] = second compound 0.1 µM, first compound 0.00316 µM
[7] = second compound 0.1 µM, first compound 0.01 µM
[8] = second compound 0.1 µM, first compound 0.0316 µM
[9] = second compound 0.1 µM, first compound 0.1 µM
[10] = second compound 0.1 µM, first compound 0.316 µM
[11] = second compound 0.1 µM, first compound 1 µM
[12] = second compound 0.316 µM, first compound 0.00316 µM
[13] = second compound 0.316 µM, first compound 0.01 µM
[14] = second compound 0.316 µM, first compound 0.0316 µM
[15] = second compound 0.316 µM, first compound 0.1 µM
[16] = second compound 0.316 µM, first compound 0.316 µM
[17] = second compound 0.316 µM, first compound 1 µM
[18] = second compound 1 µM, first compound 0.00316 µM
[19] = second compound 1 µM, first compound 0.01 µM
[20] = second compound 1 µM, first compound 0.0316 µM
[21] = second compound 1 µM, first compound 0.1 µM
[22] = second compound 1 µM, first compound 0.316 µM
[23] = second compound 1 µM, first compound 1 µM
[24] = second compound 3.16 µM, first compound 0.00316 µM
[25] = second compound 3.16 µM, first compound 0.01 µM
[26] = second compound 3.16 µM, first compound 0.0316 µM
[27] = second compound 3.16 µM, first compound 0.1 µM
[28] = second compound 3.16 µM, first compound 0.316 µM
[29] = second compound 3.16 µM, first compound 1 µM
[30] = second compound 10 µM, first compound 0.00316 µM
[31] = second compound 10 µM, first compound 0.01 µM
[32] = second compound 10 µM, first compound 0.0316 µM
[33] = second compound 10 µM, first compound 0.1 µM
[34] = second compound 10 µM, first compound 0.316 µM
[35] = second compound 10 µM, first compound 1 µM

CC(C)CC(NC(=O)CNC(=O)c1cc(Cl)ccc1Cl)B1OC(=O)CC(CC(=O)O)(C(=O)O)O1 (configuration not stated)
viability, T/C (compound 0.000316 µM): 108% and 107%
viability, T/C (compound 0.001 µM): 106% and 104%
viability, T/C (compound 0.00316 µM): 102% and 106%
viability, T/C (compound 0.01 µM): 49.1% and 64.2%
viability, T/C (compound 0.0316 µM): 30.4% and 36.4%
viability, T/C (compound 0.1 µM): 7.53% and 16.1%
IC50 (curve of compound): 11.5 nM and 17.9 nM

Nc1ncn(C2CC(O)C(CO)O2)c(=O)n1 (configuration not stated) + NC1CCC(NC2CC2c2ccccc2)CC1
IC50 [1]: > 1000 nM
IC50 [2]: > 1000 nM
IC50 [3]: > 1000 nM
IC50 [4]: > 1000 nM
IC50 [5]: 628 nM
viability, T/C [6]: 115%
viability, T/C [7]: 117%
viability, T/C [8]: 97.1%
viability, T/C [9]: 82.6%
viability, T/C [10]: 72.8%
viability, T/C [11]: 56%
viability, T/C [12]: 127%
viability, T/C [13]: 108%
viability, T/C [14]: 95.3%
viability, T/C [15]: 92.2%
viability, T/C [16]: 71.4%
viability, T/C [17]: 63.1%
viability, T/C [18]: 118%
viability, T/C [19]: 99%
viability, T/C [20]: 96.7%
viability, T/C [21]: 82.5%
viability, T/C [22]: 70.1%
viability, T/C [23]: 59%
viability, T/C [24]: 103%
viability, T/C [25]: 117%
viability, T/C [26]: 82.8%
viability, T/C [27]: 82%
viability, T/C [28]: 65.2%
viability, T/C [29]: 52.6%
viability, T/C [30]: 79.2%
viability, T/C [31]: 80.2%
viability, T/C [32]: 82.6%
viability, T/C [33]: 69.6%
viability, T/C [34]: 58.5%
viability, T/C [35]: 44.6%

Nc1ccn(C2OC(CO)C(O)C2(F)F)c(=O)n1 (configuration not stated) + NC1CC1c1ccc(-c2cccc(O)c2)cc1
IC50 [1]: < 0.949 nM
IC50 [2]: < 0.949 nM
IC50 [3]: < 0.949 nM
IC50 [4]: < 0.949 nM
IC50 [5]: < 0.949 nM
viability, T/C (second compound 0.1 µM, first compound 0.000949 µM): 10.3%
viability, T/C (second compound 0.1 µM, first compound 0.003 µM): 2.49%
outcome (second compound 0.1 µM): active
viability, T/C (second compound 0.1 µM, first compound 0.03 µM): 2.95%
viability, T/C (second compound 0.1 µM, first compound 0.0949 µM): 3.87%
viability, T/C (second compound 0.1 µM, first compound 0.3 µM): 4.12%
viability, T/C (second compound 0.316 µM, first compound 0.000949 µM): 9.54%
viability, T/C (second compound 0.316 µM, first compound 0.003 µM): 2.66%
outcome (second compound 0.316 µM): active
viability, T/C (second compound 0.316 µM, first compound 0.03 µM): 2.74%
viability, T/C (second compound 0.316 µM, first compound 0.0949 µM): 4.19%
viability, T/C (second compound 0.316 µM, first compound 0.3 µM): 3.51%
viability, T/C (second compound 1 µM, first compound 0.000949 µM): 7.42%
viability, T/C (second compound 1 µM, first compound 0.003 µM): 2.53%
outcome (second compound 1 µM): active
viability, T/C (second compound 1 µM, first compound 0.03 µM): 2.64%
viability, T/C (second compound 1 µM, first compound 0.0949 µM): 3.23%
viability, T/C (second compound 1 µM, first compound 0.3 µM): 4%
viability, T/C (second compound 3.16 µM, first compound 0.000949 µM): 9.36%
viability, T/C (second compound 3.16 µM, first compound 0.003 µM): 2.32%
outcome (second compound 3.16 µM): active
viability, T/C (second compound 3.16 µM, first compound 0.03 µM): 2.75%
viability, T/C (second compound 3.16 µM, first compound 0.0949 µM): 3.87%
viability, T/C (second compound 3.16 µM, first compound 0.3 µM): 6.57%
viability, T/C (second compound 10 µM, first compound 0.000949 µM): 7.48%
viability, T/C (second compound 10 µM, first compound 0.003 µM): 3.61%
outcome (second compound 10 µM): active
viability, T/C (second compound 10 µM, first compound 0.03 µM): 2.69%
viability, T/C (second compound 10 µM, first compound 0.0949 µM): 3.6%
viability, T/C (second compound 10 µM, first compound 0.3 µM): 4.45%

Nc1ncn(C2CC(O)C(CO)O2)c(=O)n1 (configuration not stated) + NC1CC1c1ccc(-c2cccc(O)c2)cc1
IC50 [1]: > 1000 nM
IC50 [2]: > 1000 nM
IC50 [3]: > 1000 nM
IC50 [4]: > 1000 nM
IC50 [5]: > 1000 nM
viability, T/C [6]: 119%
viability, T/C [7]: 122%
viability, T/C [8]: 107%
viability, T/C [9]: 97%
viability, T/C [10]: 99.1%
viability, T/C [11]: 78.4%
viability, T/C [12]: 125%
viability, T/C [13]: 113%
viability, T/C [14]: 107%
viability, T/C [15]: 96.5%
viability, T/C [16]: 88.8%
viability, T/C [17]: 82.3%
viability, T/C [18]: 122%
viability, T/C [19]: 119%
viability, T/C [20]: 107%
viability, T/C [21]: 96.1%
viability, T/C [22]: 90.9%
viability, T/C [23]: 82.5%
viability, T/C [24]: 113%
viability, T/C [25]: 115%
viability, T/C [26]: 95.7%
viability, T/C [27]: 94.8%
viability, T/C [28]: 84%
viability, T/C [29]: 75.6%
viability, T/C [30]: 108%
viability, T/C [31]: 102%
viability, T/C [32]: 97.1%
viability, T/C [33]: 93%
viability, T/C [34]: 78.3%
viability, T/C [35]: 72.9%

Cn1ncnc1C1c2n[nH]c(=O)c3cc(F)cc(c23)NC1c1ccc(F)cc1 (configuration not stated) + NC1CCC(NC2CC2c2ccccc2)CC1
IC50 [1]: > 100 nM
IC50 [2]: > 100 nM
IC50 [3]: > 100 nM
IC50 [4]: > 100 nM
IC50 [5]: > 100 nM
viability, T/C (second compound 0.1 µM, first compound 0.000316 µM): 117%
viability, T/C (second compound 0.1 µM, first compound 0.001 µM): 114%
viability, T/C [6]: 117%
viability, T/C [7]: 113%
viability, T/C [8]: 109%
viability, T/C [9]: 109%
viability, T/C (second compound 0.316 µM, first compound 0.000316 µM): 127%
viability, T/C (second compound 0.316 µM, first compound 0.001 µM): 118%
viability, T/C [12]: 121%
viability, T/C [13]: 117%
viability, T/C [14]: 115%
viability, T/C [15]: 113%
viability, T/C (second compound 1 µM, first compound 0.000316 µM): 109%
viability, T/C (second compound 1 µM, first compound 0.001 µM): 115%
viability, T/C [18]: 114%
viability, T/C [19]: 115%
viability, T/C [20]: 110%
viability, T/C [21]: 105%
viability, T/C (second compound 3.16 µM, first compound 0.000316 µM): 107%
viability, T/C (second compound 3.16 µM, first compound 0.001 µM): 106%
viability, T/C [24]: 112%
viability, T/C [25]: 109%
viability, T/C [26]: 106%
viability, T/C [27]: 98.8%
viability, T/C (second compound 10 µM, first compound 0.000316 µM): 90.5%
viability, T/C (second compound 10 µM, first compound 0.001 µM): 88.1%
viability, T/C [30]: 91.5%
viability, T/C [31]: 89.3%
viability, T/C [32]: 91.5%
viability, T/C [33]: 84.1%
